The values that follow come from PMC2363969, “gp100/pmel17 and tyrosinase encode multiple epitopes recognized by Th1-type CD4+T cells” (British Journal of Cancer, 2001).

As a reminder, the IC50 is the midpoint of a concentration-inhibition curve.

One assay addresses HLA-DRB1*0401 (Homo sapiens, UniProt P01903+P01911, A100K/A169T/F76Y/I96L/K127E/L162R/M171V/N62H/P40V/Q125Y/R42H/S133A/S149N/S66Y/V115G/V209L/W38E). The experiment in a line: solid-state competitive-binding assay, purified HLA-DR4.
The next assay concerns the target HLA-DRB1*0404 (Homo sapiens, UniProt P01903+P01911, A100R/A169T/F76Y/I96L/K127E/L162R/M171V/N62H/P40V/Q125Y/R42H/S133A/S149N/S66Y/V209L/W38E). The assay is described as above.
The subject of assay [1] is CD4+ T cells. The experiment in a line: IFN-γ ELISPOT, freshly-isolated peripheral blood CD4+ T cells vs peptide-pulsed T2.DR4. The class given is cell-based, human. Particulars: positive if above normal donor mean + 3 S.D.; for T cell responses evaluated in MEL (of 5): number of responding patients: HLA-DR4+ melanoma patients with active disease, n = 5, 20 h IFN-γ ELISPOT; for T cell responses evaluated in MEL-NED (of 11): number of responding patients: HLA-DR4+ melanoma patients with no evidence of disease, n = 11, 20 h IFN-γ ELISPOT.

Assay [2] relates to CD4+ T cells. The experiment in a line: IFN-γ ELISPOT, normal donor CD4+ T cells after in vitro stimulation with peptide-pulsed autologous DC. It is filed as cell-based, human. As to conditions: for T cell responses evaluated in ND-IVS (of 10): number of responding normal donors: normal HLA-DR4+ donors, n = 10, after 2 rounds of in vitro stimulation with autologous DC pulsed with peptide, IFN-γ ELISPOT.

Setting [3] is: read-out: Binding affinity (IC50) DRB1*0401.
The mark [4] stands for this setting: read-out: Binding affinity (IC50) DRB1*0404.

Read-outs that look alike come from different tables or passages of the source. Where a SMILES comes first, the peptide text is derived from it. Where no end group is shown, it is not given here.

Take ALHIYMDGTMSQVQGSA [tyrosinase365-381D]: the values for the IC50 at HLA-DRB1*0401 and on HLA-DRB1*0404 were 0.017 µM and 0.031 µM, respectively.

With “WMHYYVSMDALLGGSEI [tyrosinase178-194, synthetic peptide derived from tyrosinase]”, in the assay on CD4+ T cells [1], the “T cell responses evaluated in MEL (of 5): number of responding patients” value is listed as 1 patients (of 5) and the “T cell responses evaluated in MEL-NED (of 11): number of responding patients” value (“T cell responses evaluated in MEL-NED” below) is on record as 1 patients (of 11). The “immunogen grade on an arbitrary scale” value in the assay on CD4+ T cells [2] (in both melanoma patients and in vitro stimulated normal donors, weak / moderate / strong) is on record as “moderate”. In addition, the “T cell responses evaluated in ND-IVS (of 10): number of responding normal donors” value (shortened to “T cell responses evaluated in ND-IVS”) with CD4+ T cells [2] is reported as 3 donors (of 10).

Turning to “IVGILLVLMAVVLASLIYRRR [gp100599-619 /pmel17606-626]”, in the assay with CD4+ T cells [1], the “T cell responses evaluated in MEL (of 5): number of responding patients” value is 0 patients (of 5) and the “T cell responses evaluated in MEL-NED” value is listed as 0 patients (of 11). In addition, the “T cell responses evaluated in ND-IVS” value with CD4+ T cells [2] is on record as 0 donors (of 10). Also, the IC50 at HLA-DRB1*0401 (setting [3]) is more than 10 µM. The IC50 on HLA-DRB1*0404 (setting [4]) was more than 10 µM.

Regarding “KRCLLHLAVIGALLAVGATKV [gp100/pmel176-26]”, the half-inhibitory concentration (IC50) at HLA-DRB1*0401 (setting [3]) was more than 10 µM.

In the case of `CC[C@H](C)[C@H](NC(=O)[C@H](CCC(N)=O)NC(=O)[C@H](Cc1c[nH]cn1)NC(=O)[C@H](CC(C)C)NC(=O)[C@@H](NC(=O)[C@H](CC(C)C)NC(=O)[C@H](CCC(N)=O)NC(=O)[C@H](CS)NC(=O)[C@H](C)NC(=O)[C@@H]1CCCN1C(=O)[C@H](CO)NC(=O)[C@@H]1CCCN1C(=O)[C@H](CC(C)C)NC(=O)[C@@H](NC(=O)[C@@H]1CCCN1C(=O)[C@H](CCC(N)=O)NC(=O)[C@H](CS)NC(=O)[C@@H](N)CC(C)C)C(C)C)C(C)C)C(=O)N[C@@H](CC(C)C)C(=O)N[C@@H](CCCCN)C(=O)NCC(=O)NCC(=O)O` [gp100/pmel17540-561] (H-LCQPVLPSPACQLVLHQILKGG-OH), the IC50 on HLA-DRB1*0401 (setting [3]) was more than 10 µM.

On to `CC(C)[C@H](NC(=O)[C@H](CO)NC(=O)[C@@H]1CCCN1C(=O)[C@@H](N)Cc1c[nH]c2ccccc12)C(=O)N[C@@H](Cc1ccccc1)C(=O)N[C@@H](Cc1ccc(O)cc1)C(=O)N[C@@H](CC(N)=O)C(=O)N[C@@H](CCCNC(=N)N)C(=O)N[C@H](C(=O)N[C@@H](CS)C(=O)N[C@@H](CCC(N)=O)C(=O)N[C@@H](CS)C(=O)N[C@@H](CO)C(=O)NCC(=O)N[C@@H](CC(N)=O)C(=O)N[C@@H](Cc1ccccc1)C(=O)O)[C@@H](C)O` [tyrosinase80-95] (H-WPSVFYNRTCQCSGNF-OH; N-terminus and C-terminus assumed), for which, in the assay with CD4+ T cells [1], the “T cell responses evaluated in MEL (of 5): number of responding patients” value is given as 0 patients (of 5) and the “T cell responses evaluated in MEL-NED” value is listed as 0 patients (of 11). For the same compound, in the assay with CD4+ T cells [2], the “T cell responses evaluated in ND-IVS” value is given as 0 donors (of 10).

On to “PGPVTAQVVLQAAIPLTSCGSS [gp100/pmel17283-304]”, for which the IC50 at HLA-DRB1*0404 (setting [4]) was found to be 0.051 µM.

For the compound “VSGLSIGTGRAMLGTHTMEVTVY [gp100/pmel17167-189]”, on HLA-DRB1*0401 (setting [3]), the IC50 was more than 10 µM.

Regarding “VYVWKTWGQYWQVLGGPVS [gp100/pmel17150-168]”, in the assay with CD4+ T cells [1], the “T cell responses evaluated in MEL (of 5): number of responding patients” value is 0 patients (of 5) and the “T cell responses evaluated in MEL-NED” value was 0 patients (of 11). In addition, the “T cell responses evaluated in ND-IVS” value with CD4+ T cells [2] is reported as 0 donors (of 10). For the same compound, the IC50 at HLA-DRB1*0401 is more than 10 µM. On HLA-DRB1*0404, the IC50 was more than 10 µM.
